In ChEMBL document CHEMBL3885861, “Open TG-GATES”:

Species: Rattus norvegicus
Experiment: Open TG-GATES - Regimen: Single
Assay type: toxicity, organism-based, Sprague-Dawley
Design: regimen Single, gender Male, age 6 weeks
Conditions: in vivo, po, 15 mg/kg, route gavage, dose level Low; for APTT / Bas / Eos / Fbg / Hb / Ht / Lym / MCH / MCHC / MCV / Mono / Neu / PT / Plat / RBC / Ret / WBC: tissue Blood; for KIDNEY_L / KIDNEY_R / KIDNEY_TOTAL: tissue Kidney; for LIVER: tissue Liver; for A/G / ALP / ALT / AST / BUN / CRE / Ca / Cl / DBIL / GLC / IP / K / LDH / Na / PL / RALB / TBIL / TC / TG / TP / gamma-GTP: tissue Plasma

SMILES: O=c1ccc2ccccc2o1 [COUMARIN]
- TERMINAL_BW (3 h): 178.4 g
- APTT (3 h): 16.5 s
- Bas (3 h): 0%
- Eos (3 h): 1%
- Fbg (3 h): 205.2 mg/dL
- Hb (3 h): 13.6 g/dL
- Ht (3 h): 40.8%
- Lym (3 h): 82.2%
- MCH (3 h): 21.3 pg
- MCHC (3 h): 33.4%
- MCV (3 h): 63.7 fL
- Mono (3 h): 3.8%
- Neu (3 h): 13.4%
- PT (3 h): 12.4 s
- Plat (3 h): 97.1 x10_4/uL
- RBC (3 h): 640 x10_4/ul
- Ret (3 h): 8.2%
- WBC (3 h): 97 x10_2/uL
- KIDNEY_L (3 h): 0.8 g
- KIDNEY_R (3 h): 0.8 g
- KIDNEY_TOTAL (3 h): 1.7 g
- LIVER (3 h): 8 g
- A/G (3 h): 2
- ALP (3 h): 1069.4 IU/L
- ALT (3 h): 41.6 IU/L
- AST (3 h): 71.8 IU/L
- BUN (3 h): 10.2 mg/dL
- CRE (3 h): 0.4 mg/dL
- Ca (3 h): 10.6 mg/dL
- Cl (3 h): 105.6 meq/L
- DBIL (3 h): 0.006 mg/dL
- GLC (3 h): 182.4 mg/dL
- IP (3 h): 10.4 mg/dL
- K (3 h): 4.7 meq/L
- LDH (3 h): 84.8 IU/L
- Na (3 h): 138 meq/L
- PL (3 h): 161.6 mg/dL
- RALB (3 h): 3.9 g/dL
- TBIL (3 h): 0.4 mg/dL
- TC (3 h): 86 mg/dL
- TG (3 h): 115 mg/dL
- TP (3 h): 5.9 g/dL
- gamma-GTP (3 h): 1.4 IU/L
- TERMINAL_BW (6 h): 180.2 g
- APTT (6 h): 16.4 s
- Bas (6 h): 0%
- Eos (6 h): 1.2%
- Fbg (6 h): 189.2 mg/dL
- Hb (6 h): 13.5 g/dL
- Ht (6 h): 40.5%
- Lym (6 h): 76%
- MCH (6 h): 21.9 pg
- MCHC (6 h): 33.2%
- MCV (6 h): 65.9 fL
- Mono (6 h): 5%
- Neu (6 h): 18.4%
- PT (6 h): 12.5 s
- Plat (6 h): 109.6 x10_4/uL
- RBC (6 h): 614.6 x10_4/ul
- Ret (6 h): 9.4%
- WBC (6 h): 95.4 x10_2/uL
- KIDNEY_L (6 h): 0.8 g
- KIDNEY_R (6 h): 0.8 g
- KIDNEY_TOTAL (6 h): 1.7 g
- LIVER (6 h): 8 g
- A/G (6 h): 2.1
- ALP (6 h): 872 IU/L
- ALT (6 h): 33.6 IU/L
- AST (6 h): 65 IU/L
- BUN (6 h): 9 mg/dL
- CRE (6 h): 0.4 mg/dL
- Ca (6 h): 10.3 mg/dL
- Cl (6 h): 107.2 meq/L
- DBIL (6 h): 0.004 mg/dL
- GLC (6 h): 189.6 mg/dL
- IP (6 h): 10.4 mg/dL
- K (6 h): 5.2 meq/L
- LDH (6 h): 88 IU/L
- Na (6 h): 138 meq/L
- PL (6 h): 136 mg/dL
- RALB (6 h): 3.7 g/dL
- TBIL (6 h): 0.3 mg/dL
- TC (6 h): 75.2 mg/dL
- TG (6 h): 63 mg/dL
- TP (6 h): 5.5 g/dL
- gamma-GTP (6 h): 1.2 IU/L
- TERMINAL_BW (9 h): 177.8 g
- APTT (9 h): 16.1 s
- Bas (9 h): 0%
- Eos (9 h): 0.8%
- Fbg (9 h): 198.2 mg/dL
- Hb (9 h): 13.2 g/dL
- Ht (9 h): 40.1%
- Lym (9 h): 78.2%
- MCH (9 h): 22 pg
- MCHC (9 h): 33%
- MCV (9 h): 66.6 fL
- Mono (9 h): 6.4%
- Neu (9 h): 14.6%
- PT (9 h): 12.3 s
- Plat (9 h): 103 x10_4/uL
- RBC (9 h): 602 x10_4/ul
- Ret (9 h): 8.7%
- WBC (9 h): 85.8 x10_2/uL
- KIDNEY_L (9 h): 0.8 g
- KIDNEY_R (9 h): 0.9 g
- KIDNEY_TOTAL (9 h): 1.7 g
- LIVER (9 h): 7.2 g
- A/G (9 h): 2.3
- ALP (9 h): 849 IU/L
- ALT (9 h): 30.6 IU/L
- AST (9 h): 62 IU/L
- BUN (9 h): 9.8 mg/dL
- CRE (9 h): 0.5 mg/dL
- Ca (9 h): 10.6 mg/dL
- Cl (9 h): 106.8 meq/L
- DBIL (9 h): 0.03 mg/dL
- GLC (9 h): 195 mg/dL
- IP (9 h): 11.6 mg/dL
- K (9 h): 5.1 meq/L
- LDH (9 h): 102 IU/L
- Na (9 h): 139.4 meq/L
- PL (9 h): 141 mg/dL
- RALB (9 h): 3.8 g/dL
- TBIL (9 h): 0.3 mg/dL
- TC (9 h): 81.4 mg/dL
- TG (9 h): 37.4 mg/dL
- TP (9 h): 5.5 g/dL
- gamma-GTP (9 h): 1.2 IU/L
- TERMINAL_BW (24 h): 189.8 g
- APTT (24 h): 15.7 s
- Bas (24 h): 0%
- Eos (24 h): 1%
- Fbg (24 h): 208.2 mg/dL
- Hb (24 h): 13.2 g/dL
- Ht (24 h): 39.7%
- Lym (24 h): 74.2%
- MCH (24 h): 22.3 pg
- MCHC (24 h): 33.3%
- MCV (24 h): 66.9 fL
- Mono (24 h): 10.6%
- Neu (24 h): 14.2%
- PT (24 h): 12.2 s
- Plat (24 h): 102.6 x10_4/uL
- RBC (24 h): 594.2 x10_4/ul
- Ret (24 h): 8.2%
- WBC (24 h): 102.3 x10_2/uL
- KIDNEY_L (24 h): 0.9 g
- KIDNEY_R (24 h): 0.9 g
- KIDNEY_TOTAL (24 h): 1.8 g
- LIVER (24 h): 9.3 g
- A/G (24 h): 2.1
- ALP (24 h): 972.2 IU/L
- ALT (24 h): 43 IU/L
- AST (24 h): 68.2 IU/L
- BUN (24 h): 14 mg/dL
- CRE (24 h): 0.5 mg/dL
- Ca (24 h): 10.9 mg/dL
- Cl (24 h): 106.2 meq/L
- DBIL (24 h): 0.01 mg/dL
- GLC (24 h): 190.8 mg/dL
- IP (24 h): 8.4 mg/dL
- K (24 h): 5.2 meq/L
- LDH (24 h): 97.4 IU/L
- Na (24 h): 137.8 meq/L
- PL (24 h): 140.4 mg/dL
- RALB (24 h): 3.8 g/dL
- TBIL (24 h): 0.3 mg/dL
- TC (24 h): 76.8 mg/dL
- TG (24 h): 77.2 mg/dL
- TP (24 h): 5.7 g/dL
- gamma-GTP (24 h): 1 IU/L
